For assay [1], the target named is Polyprotein P1234 (Chikungunya virus (strain S27-African prototype) (CHIKV)) (UniProt Q8JUX6). Briefly: Inhibition of CHIKV nsP2 protease at 1 mM by FRET assay relative to control.
For a further assay, the target named is Polyprotein P1234 (Chikungunya virus (strain S27-African prototype) (CHIKV), UniProt Q8JUX6). Briefly: Inhibition of CHIKV nsP2 protease by FRET assay.
The target of assay [2] is Polyprotein P1234 (Chikungunya virus (strain S27-African prototype) (CHIKV)) (UniProt Q8JUX6). Briefly: Irreversible binding affinity to CHIKV nsP2 protease at 10 uM preincubated with compound followed by 100 fold dilution and subsequent addition of substrate by jump-dilution assay.
Assay [3] has the same target. In words: Binding affinity to CHIKV nsP2 protease assessed as covalent modification by mass spectrometry.
In assay [4] the target is Replicase polyprotein 1ab (Severe acute respiratory syndrome coronavirus 2) (UniProt P0DTD1). Briefly: Inhibition of SARS-CoV-2 PLpro at 1 mM by FRET analysis.
In assay [5] the target is Polyprotein P1234 (Sindbis virus) (UniProt P03317). Briefly: Inhibition of SINV nsP2pro at 1 mM by FRET analysis.
Chain of Polyprotein P1234 (Sindbis virus) (P03317 whole entry): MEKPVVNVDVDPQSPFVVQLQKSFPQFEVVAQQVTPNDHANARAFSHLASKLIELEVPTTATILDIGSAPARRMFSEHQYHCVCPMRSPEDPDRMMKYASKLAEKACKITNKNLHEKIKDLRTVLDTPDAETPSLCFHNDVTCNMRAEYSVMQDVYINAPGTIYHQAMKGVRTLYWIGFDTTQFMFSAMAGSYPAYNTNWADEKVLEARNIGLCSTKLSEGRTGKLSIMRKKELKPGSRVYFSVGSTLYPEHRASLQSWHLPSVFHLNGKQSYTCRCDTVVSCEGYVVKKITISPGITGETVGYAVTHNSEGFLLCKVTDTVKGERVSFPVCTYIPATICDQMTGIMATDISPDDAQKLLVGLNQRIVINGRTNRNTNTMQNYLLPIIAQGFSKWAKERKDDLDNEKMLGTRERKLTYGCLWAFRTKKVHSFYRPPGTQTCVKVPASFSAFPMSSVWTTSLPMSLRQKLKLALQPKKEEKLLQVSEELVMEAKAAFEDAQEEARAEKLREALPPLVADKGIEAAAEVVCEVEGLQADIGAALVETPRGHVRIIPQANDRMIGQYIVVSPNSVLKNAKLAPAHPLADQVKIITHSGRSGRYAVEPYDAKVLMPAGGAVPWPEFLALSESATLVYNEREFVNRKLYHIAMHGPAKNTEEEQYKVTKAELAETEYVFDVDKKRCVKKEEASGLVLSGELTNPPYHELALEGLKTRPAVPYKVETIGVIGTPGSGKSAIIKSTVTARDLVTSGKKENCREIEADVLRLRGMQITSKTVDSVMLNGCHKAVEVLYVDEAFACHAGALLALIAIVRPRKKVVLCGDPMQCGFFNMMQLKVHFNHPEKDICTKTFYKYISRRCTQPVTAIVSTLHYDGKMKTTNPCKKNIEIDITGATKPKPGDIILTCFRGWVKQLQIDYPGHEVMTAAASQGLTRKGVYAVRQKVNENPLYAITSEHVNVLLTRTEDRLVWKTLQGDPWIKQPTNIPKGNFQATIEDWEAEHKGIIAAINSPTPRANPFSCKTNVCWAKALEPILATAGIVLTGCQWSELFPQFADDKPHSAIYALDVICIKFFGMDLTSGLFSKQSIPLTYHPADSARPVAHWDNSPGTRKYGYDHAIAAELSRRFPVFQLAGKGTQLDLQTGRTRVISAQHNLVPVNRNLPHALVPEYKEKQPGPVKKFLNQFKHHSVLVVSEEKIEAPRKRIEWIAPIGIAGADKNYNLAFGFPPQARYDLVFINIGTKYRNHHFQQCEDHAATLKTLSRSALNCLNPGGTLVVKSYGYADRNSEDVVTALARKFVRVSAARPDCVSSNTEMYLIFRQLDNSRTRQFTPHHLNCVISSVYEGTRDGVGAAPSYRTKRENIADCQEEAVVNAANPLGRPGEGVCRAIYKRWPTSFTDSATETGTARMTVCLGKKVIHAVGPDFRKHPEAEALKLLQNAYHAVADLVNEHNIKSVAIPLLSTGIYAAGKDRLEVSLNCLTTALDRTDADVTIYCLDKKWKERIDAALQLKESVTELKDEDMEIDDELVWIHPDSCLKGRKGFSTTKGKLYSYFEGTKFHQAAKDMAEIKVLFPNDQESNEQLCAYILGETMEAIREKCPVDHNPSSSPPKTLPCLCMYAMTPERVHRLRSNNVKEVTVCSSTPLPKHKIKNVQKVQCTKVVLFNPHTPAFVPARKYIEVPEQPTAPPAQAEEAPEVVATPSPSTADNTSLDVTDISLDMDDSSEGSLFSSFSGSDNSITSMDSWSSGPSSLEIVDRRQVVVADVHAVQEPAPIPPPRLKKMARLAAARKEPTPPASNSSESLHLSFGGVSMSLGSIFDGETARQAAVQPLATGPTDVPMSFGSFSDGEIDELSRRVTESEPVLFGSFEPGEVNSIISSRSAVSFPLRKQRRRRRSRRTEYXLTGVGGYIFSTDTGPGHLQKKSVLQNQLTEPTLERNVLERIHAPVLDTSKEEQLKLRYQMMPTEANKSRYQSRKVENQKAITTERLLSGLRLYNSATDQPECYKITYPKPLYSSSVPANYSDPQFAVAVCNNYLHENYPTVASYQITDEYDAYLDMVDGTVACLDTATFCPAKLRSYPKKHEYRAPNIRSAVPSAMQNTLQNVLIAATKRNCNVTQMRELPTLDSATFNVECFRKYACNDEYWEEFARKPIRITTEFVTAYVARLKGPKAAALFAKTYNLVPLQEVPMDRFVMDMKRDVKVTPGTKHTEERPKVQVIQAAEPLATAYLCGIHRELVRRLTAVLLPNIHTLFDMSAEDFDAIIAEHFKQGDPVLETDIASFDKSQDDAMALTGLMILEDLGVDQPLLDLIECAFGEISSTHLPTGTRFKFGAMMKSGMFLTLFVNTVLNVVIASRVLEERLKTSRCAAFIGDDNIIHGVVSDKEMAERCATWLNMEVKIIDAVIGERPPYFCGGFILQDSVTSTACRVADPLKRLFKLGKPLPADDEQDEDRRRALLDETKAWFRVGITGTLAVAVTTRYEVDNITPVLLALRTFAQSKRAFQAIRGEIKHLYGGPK
Assay [6] has as its target Polyprotein P1234 (Chikungunya virus (strain S27-African prototype) (CHIKV)) (UniProt Q8JUX6). In words: Reversible binding affinity to CHIKV nsP2 protease at 10 uM preincubated with compound followed by 100 fold dilution and subsequent addition of substrate by jump-dilution assay.

Activity calls are given as the source filed them. The rule behind the calls is not given here. Some results are limits rather than exact numbers.

Chain of Polyprotein P1234 (Chikungunya virus (strain S27-African prototype) (CHIKV)) (Q8JUX6 whole entry): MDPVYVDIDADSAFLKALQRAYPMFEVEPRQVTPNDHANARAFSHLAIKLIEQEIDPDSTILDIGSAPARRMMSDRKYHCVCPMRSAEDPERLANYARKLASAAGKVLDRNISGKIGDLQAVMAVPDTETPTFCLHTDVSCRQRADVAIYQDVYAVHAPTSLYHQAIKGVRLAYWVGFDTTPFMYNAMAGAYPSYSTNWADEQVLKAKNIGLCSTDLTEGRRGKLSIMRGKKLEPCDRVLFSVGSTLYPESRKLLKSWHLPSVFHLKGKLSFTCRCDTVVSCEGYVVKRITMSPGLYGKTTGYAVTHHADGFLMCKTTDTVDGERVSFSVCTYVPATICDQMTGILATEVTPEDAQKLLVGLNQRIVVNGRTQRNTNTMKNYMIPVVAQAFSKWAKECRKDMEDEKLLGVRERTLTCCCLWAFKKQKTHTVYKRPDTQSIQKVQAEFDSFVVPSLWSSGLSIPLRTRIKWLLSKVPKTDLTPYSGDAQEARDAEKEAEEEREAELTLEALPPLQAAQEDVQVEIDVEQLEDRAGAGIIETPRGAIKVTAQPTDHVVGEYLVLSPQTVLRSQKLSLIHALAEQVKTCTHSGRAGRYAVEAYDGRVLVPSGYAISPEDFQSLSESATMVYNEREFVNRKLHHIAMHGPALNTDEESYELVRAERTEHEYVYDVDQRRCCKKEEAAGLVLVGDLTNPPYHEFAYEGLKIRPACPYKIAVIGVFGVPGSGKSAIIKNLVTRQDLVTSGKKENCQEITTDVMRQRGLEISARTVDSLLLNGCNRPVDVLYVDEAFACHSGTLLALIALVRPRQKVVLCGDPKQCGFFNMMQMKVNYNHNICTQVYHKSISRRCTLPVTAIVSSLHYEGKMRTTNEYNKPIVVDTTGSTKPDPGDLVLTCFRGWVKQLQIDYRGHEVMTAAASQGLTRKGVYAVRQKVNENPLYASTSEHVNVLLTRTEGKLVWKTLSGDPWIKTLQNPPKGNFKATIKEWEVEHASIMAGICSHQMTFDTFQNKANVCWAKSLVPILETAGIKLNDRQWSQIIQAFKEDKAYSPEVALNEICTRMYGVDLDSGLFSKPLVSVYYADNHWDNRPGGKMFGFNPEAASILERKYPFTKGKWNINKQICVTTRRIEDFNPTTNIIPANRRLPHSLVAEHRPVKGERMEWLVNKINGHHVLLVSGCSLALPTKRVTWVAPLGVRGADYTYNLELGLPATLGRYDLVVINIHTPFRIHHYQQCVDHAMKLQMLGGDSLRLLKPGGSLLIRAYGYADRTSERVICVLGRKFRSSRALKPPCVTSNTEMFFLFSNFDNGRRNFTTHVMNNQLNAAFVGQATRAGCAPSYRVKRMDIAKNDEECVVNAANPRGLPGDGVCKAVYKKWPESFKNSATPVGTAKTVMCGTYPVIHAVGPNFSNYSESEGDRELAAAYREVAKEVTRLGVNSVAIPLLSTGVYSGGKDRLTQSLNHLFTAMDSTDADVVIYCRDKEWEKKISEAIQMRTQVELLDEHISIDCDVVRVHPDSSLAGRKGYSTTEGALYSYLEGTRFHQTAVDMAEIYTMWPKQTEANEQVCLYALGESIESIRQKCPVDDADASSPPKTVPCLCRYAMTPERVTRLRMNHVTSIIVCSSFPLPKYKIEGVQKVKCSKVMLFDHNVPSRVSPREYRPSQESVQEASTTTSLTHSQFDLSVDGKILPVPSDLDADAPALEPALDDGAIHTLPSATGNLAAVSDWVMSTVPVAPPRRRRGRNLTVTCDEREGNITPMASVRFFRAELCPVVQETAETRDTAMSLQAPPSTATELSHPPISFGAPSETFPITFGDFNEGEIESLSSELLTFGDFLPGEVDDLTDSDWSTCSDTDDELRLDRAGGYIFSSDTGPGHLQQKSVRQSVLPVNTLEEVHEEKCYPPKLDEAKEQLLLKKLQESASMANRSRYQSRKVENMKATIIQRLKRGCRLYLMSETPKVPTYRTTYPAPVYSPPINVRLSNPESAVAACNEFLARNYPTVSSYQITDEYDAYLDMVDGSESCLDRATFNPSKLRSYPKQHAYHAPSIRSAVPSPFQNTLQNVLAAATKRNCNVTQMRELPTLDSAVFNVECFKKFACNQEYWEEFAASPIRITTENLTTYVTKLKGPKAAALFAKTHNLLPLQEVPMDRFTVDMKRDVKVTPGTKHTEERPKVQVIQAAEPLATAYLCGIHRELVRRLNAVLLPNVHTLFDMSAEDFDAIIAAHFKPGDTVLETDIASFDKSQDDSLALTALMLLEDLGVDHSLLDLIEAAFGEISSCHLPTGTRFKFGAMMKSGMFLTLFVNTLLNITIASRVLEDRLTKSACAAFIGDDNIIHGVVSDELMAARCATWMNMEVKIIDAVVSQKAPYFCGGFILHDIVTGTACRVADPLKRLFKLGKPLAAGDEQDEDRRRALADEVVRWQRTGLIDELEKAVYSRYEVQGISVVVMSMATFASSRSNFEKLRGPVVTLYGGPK

Turning to `C=CC(=O)Nc1ccc(OC)cc1`, the inhibition in assay [1] is < 40%. Still for that read-out and setting: the result for `C=CC(=O)N(C)Cc1ccccc1` reads < 40%. Regarding `C=CC(=O)Nc1ccc(Br)cc1`, the inhibition in assay [1] is > 40%; in assay [5], “Active; Inhibition Is Weaker Than Chikv Nsp2Pro”. For the same compound, the IC50 at Polyprotein P1234 worked out at 1.3 mM. Further, the outcome in assay [2] was Active. Besides, the Activity in assay [3] worked out at 17%. Also, the inhibition result in assay [4] is “inactive”. As for `C=CC(=O)Nc1ccc(I)cc1`, in assay [1], the inhibition was > 40%. For `C=CC(=O)Nc1ccc(OC)c(OC(=O)C=C)c1`, the inhibition in assay [1] is > 40%.

On to `C=CC(=O)NCc1ccc(Br)cc1F`, for which the inhibition in assay [1] was < 40%. On the same count and under the same terms, the result for `C=CC(=O)Nc1ccc(OC)cc1[N+](=O)[O-]` reads > 40%. Still for that read-out and setting: to `C=CC(=O)NCc1ccccc1` belongs < 40%. On the same count and under the same terms, to `C=CC(=O)Nc1ccccc1` belongs < 40%.

With `C=CC(=O)NCc1ccccc1Cl`, the inhibition entry in assay [4] was “inactive”. Also, the inhibition entry in assay [5] is recorded as “Active; Inhibition Is Weaker Than Chikv Nsp2Pro”. Regarding `CCC(=O)Nc1ccc(Br)cc1`, the inhibition in assay [1] is < 40%. The outcome in assay [6] was Active. `C=CC(=O)NCc1ccc(C(F)(F)F)cc1`: the inhibition in assay [1] is < 40%. The same measure, in the same setting: to `C=CC(=O)N(C(C)C)C1CCCCC1` belongs < 40%. Turning to `C=CC(=O)NCc1ccc(Cl)cc1`, in assay [1], the inhibition is < 40%. On the same count and under the same terms, to `C=CC(=O)NCc1ccc2c(c1)OCO2` belongs < 40%; to `C=CC(=O)Nc1cccc(C)c1C`, < 40%. For `C=CC(=O)NCc1cccc(C(F)(F)F)c1`, the inhibition in assay [1] was > 40%. This compound registered a 50% inhibitory concentration (IC50) against Polyprotein P1234 of 1.3 mM. The result in assay [2] was Active. Consider `C=CC(=O)NCCc1ccccc1`, for which the inhibition in assay [1] is < 40%. In the case of `C=CC(=O)Nc1ccc(OC)c(O)c1`, the inhibition in assay [1] is > 40%. Turning to `C=CC(=O)Nc1ccc([N+](=O)[O-])cc1`, in assay [1], the inhibition is 100%.

Regarding `C=CC(=O)Nc1ccc(OC)c(OC)c1`, the inhibition in assay [1] was < 40%. Take `C=CC(=O)N[C@@H](C)c1ccccc1`: the inhibition in assay [1] is < 40%.

As to `C=CC(=O)N1CCN(C(=O)OC(C)(C)C)CC1`, in assay [1], the inhibition is < 40%. Still for that read-out and setting: the result for `C=CC(=O)NC1CCCCC1` reads < 40%; that for `C=CC(=O)N[C@H]1CCc2ccccc21`, < 40%. Take `CCC(=O)NCc1cccc(C(F)(F)F)c1`: in assay [1], the inhibition was < 40%. Further, in assay [6], the result was Active. On to `C=CC(=O)NCCc1c[nH]c2ccccc12`, for which the inhibition in assay [1] was > 40%. Still for that read-out and setting: to `C=CC(=O)NCc1ccc(Cl)cc1F` belongs < 40%; to `C=CC(=O)Nc1c(CC(C)C)cccc1CC(C)C`, < 40%; to `C=CC(=O)N[C@@H]1CCCC[C@H]1NC(=O)C=C`, < 40%. As to `C=CC(=O)N[C@H](C)c1ccccc1`, in assay [1], the inhibition was < 40%. On to `C=CC(=O)NCc1ccc(C(C)(C)C)cc1`, for which the inhibition in assay [1] is < 40%. Regarding `C=CC(=O)NCCc1ccc(O)cc1`, the inhibition in assay [1] was < 40%. On to `C=CC(=O)NCc1ccc(F)cc1`, for which the inhibition in assay [1] was < 40%. With `C=CC(=O)NCc1ccc(OC)cc1`, the inhibition in assay [1] is < 40%.
